The source of these data is patent US20060039943A1, “Acetyl-CoA carboxylase inhibitors for use as pesticides” (Yissum Research Development Company fo the Hebrew University, priority 2003, published 2006).

Data set [1] deals with bees and beneficial insects. The following applies: field conditions; cited from earlier work.
The test system of the next data set is ACCase enzyme. The experiment in a line: Inhibition of ACCase (partially purified enzyme from pheromone glands). The class given is biochemical, Helicoverpa (Heliothis) armigera. The following applies: in vitro, enzyme from pheromone producing tissue, FIG. 6. The text has this: The […] enzyme was extracted from pheromone glands separated on TMAE column and the eluted enzyme was used. Acetyl CoA was used as a substrate that requires HCO3^- where radiolabeled HCO3^- was used. In the presence of the enzyme, the substrate will be converted to radiolabeled malonyl CoA (see FIG. 1). Therefore, the difference in the level of incorporation of the radiolabeled malonyl CoA in the presence and absence of the […] enzyme was used to obtain the activity level of endogenous […] in the presence or absence of herbicides (FIG. 6).

For the next data set, the system named is decapitated female moths. In words: sex pheromone production in vivo by decapitated female moths. Also noted: species or system Helicoverpa (Heliothis) armigera. The conditions noted are these: diclofop acid 10 μmol/female, PBAN 1 pmol/female, FIG. 7. The text has this:
(§1) Two distinct assay systems were applied in order to determine the inhibition of PBAN-induced pheromone production, elicited by aryloxyphenoxy propionates and cyclohexandione oximes such as diclofop, diclofop-methyl and tralkoxydim. The first assay monitors de novo pheromone production by isolated pheromone glands in vitro according to the method of Rafaeli and Gileadi^7 (Experimental Section). The second assay, monitors sex pheromone production in vivo by decapitated female moths that are incapable of pheromone production unless stimulated by PBAN (Experimental section).
In vivo sex pheromone production by female moths was determined in 2-day old females. The females were decapitated during the photophase of day 1 and subsequently maintained for an additional 24 h, after which they were injected with either physiological saline (control) or 1 pmol/moth Hez-PBAN in saline, and in the additional presence or absence of diclofop acid. Ovipositor tips (containing pheromone glands) were removed 2 h after injection and extracted for 10 min in hexane, containing 25 ng tridecanyl acetate (Sigma, USA) as internal standard. […] Z11-hexadecenal was quantified using the internal standard quantification methods as described previously^9.

Another data set concerns pheromone glands. The experiment in a line: de novo pheromone production by isolated pheromone glands in vitro (radiolabel incorporation). The class given is cell-based, Helicoverpa (Heliothis) armigera. The following applies: for inhibition of Hez-PBAN-activated sex pheromone production: Hez-PBAN 0.05 μM, inhibitor in μM range, FIG. 3.
Description: as §1
Intersegmental membranes (pheromone glands) between the eighth and ninth abdominal segments were removed from 2-3 day old virgin females. After 1 h preincubation in Pipes buffered incubation medium (pH 6.6), pheromone glands were dried on tissue paper and then transferred individually to 10 μl incubation medium containing 0.25 μCi [1-^14C]-acetate (56 mCi/mmole, NEN, Boston, USA) in the presence or absence of Hez-PBAN (Peninsula Labs, Belmont, Calif., USA) and in the additional presence or absence of either diclofop acid or diclofop methyl ester (FIG. 3).
Incubations were performed for 3 h at room temperature. In order to measure the incorporation of radiolabel from [1-^14C] sodium acetate, the glands were extracted in 200 μl hexane for 0.5 h at room temperature and a 100 μl aliquot of the upper hexane phase was measured in a β-counter. Relative levels of incorporation into the pheromone component were determined using HPLC analysis as reported previously^9 using a Vydac C18 reversed phase column and a linear gradient from 40-55% acetonitrile. Fractions were collected every minute and radioactivity determined. The radioactive elution profile (shown in FIG. 8) was compared to known elution times of standard palmitic acid, Z11-hexadecenol and the main pheromone product of H. armigera^10, Z11-hexadecenal (Sigma, USA). In some experiments [1-^14C]-acetyl CoA (Amersham Pharmacia Biotech, UK.) or [9, 10-^3H]-palmitic acid (Life Science Products, Inc, Texas, USA) were substituted for [1-^14C]-acetate in order to measure relative incorporation into pheromone from these precursors. The effect of palmitoyl CoA (Sigma) was also tested in a different set of experiments using [^14C]-acetate as precursor (as shown in FIG. 2).

Take `CC(Oc1ccc(Oc2ccc(Cl)cc2Cl)cc1)C(=O)O` (centres unmarked) [diclofop acid]: the “toxicity to bees and beneficial insects” value in data set [1] is on record as “relatively non-toxic”. In addition, the “inhibition of partially purified ACCase enzyme activity” value in the data set on ACCase enzyme is listed as “may inhibit directly”. Further, the “inhibition of in vivo synthesis of pheromone Z11-hexadecenal induced by PBAN” value in the data set on decapitated female moths was “inhibited the production of the pheromone”. Moreover, the “inhibition of Hez-PBAN-activated sex pheromone production” value with pheromone glands (in vitro) is given as “significantly inhibits”.
Take `COC(=O)C(C)Oc1ccc(Oc2ccc(Cl)cc2Cl)cc1` (centres unmarked) [diclofop-methyl]: the “inhibition of Hez-PBAN-activated sex pheromone production” value with pheromone glands (in vitro) is given as “significantly inhibits pheromone production to the same extent as the acid”.
`CCCCCCCCCCCCCCCC(=O)O` [palmitic acid]: the “effect on the pheromonotropic action of PBAN” value in the data set on pheromone glands (addition of palmitic acid, data not shown) is “did not affect”.
`CCCCCCCCCCCCCCCC(=O)SCCNC(=O)CCNC(=O)[C@H](O)C(C)(C)COP(=O)(O)OP(=O)(O)OC[C@H]1O[C@@H](n2cnc3c(N)ncnc32)[C@H](O)[C@@H]1OP(=O)(O)O` [palmitoyl-CoA]: in the data set on pheromone glands (in vitro, 0.01 μM Hez-PBAN, 14C-acetate, FIG. 2), the “effect on production of pheromone” value is on record as “inhibiting its biosynthesis”.
In the case of `CCO/N=C(\CC)C1=C(O)CC(c2c(C)cc(C)cc2C)CC1=O` (centres unmarked) [tralkoxydim], the “concentration at which the inhibitory effect occurs” value in the data set with pheromone glands (in vitro, Hez-PBAN 0.01 μM, FIG. 5) stood at 100 µM.
